Patent US20240383882A1 (Ecstasy LLC, priority 2020, published 2024)
Where two headings read alike, the source gives them in different places.

Tested on: male C57BL/6 mice
Experiment: 55° C. warm-water tail-flick test (antinociception)
Assay type: in vivo
Details: Mus musculus
Summary of the method: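 Subcutaneous dosing, then tail immersion in 55° C water at 30–120 min; latency normalized as 100×(test−control)/(20−control), using a 20 s cutoff, after excluding mice not responding within 2 s at baseline. Values expressed as ED50 (mg/kg).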

[1] = half maximal effective dose in mice, using one of: warm water tail-flick test, spared nerve injury, chronic constriction injury, or Complete Freund's adjuvant induced inflammatory pain (not stated which per compound), read-out: Biological Activity (ED50)
[2] = sc, 0.5 h, compounds of Table I, s.c., 30 min, 55° C. water, configuration tested as in Table II, read-out: ED50 (mg/kg) at 30 min on C57BL/6 mice in Warm-water Tail-flick Test
[3] = sc, 0.5 h, compounds of Table V, s.c., 30 min, 55° C. water, read-out: ED50 (mg/kg) at 30 min on C57BL/6 mice in Warm-water Tail-flick Test (same conditions as Table II)

SMILES | ED50 [1] [mg/kg] | other results
CC1(C)COC1[C@]1(CCc2ccc(C#N)cc2)CCN(Cc2ncc(Cl)s2)C1 (single isomer, unassigned) [Compound 211, 4-(2-((R)-1-((5-chlorothiazol-2-yl)methyl)-3-((R or S)-3,3-dimethyloxetan-2-yl)pyrrolidin-3-yl)ethyl)benzonitrile] | ≤ 30 | –
CC(C)(c1ccccn1)N1CC[C@](CO)(CCc2ccc3ccoc3c2)C1 [Compound 168, (R)-(3-(2-(benzofuran-6-yl)ethyl)-1-(2-(pyridin-2-yl)propan-2-yl)pyrrolidin-3-yl)methanol] | ≤ 30 | –
N#Cc1ccc(CC[C@]2(COCc3ccccc3)CCN(C(c3cccnc3)c3cccnc3)C2)cc1 (single isomer, unassigned) [Compound 72] | > 50 | –
CC1(C)COC1[C@]1(CCc2ccc(C#N)cc2)CCN(Cc2cccnc2)C1 (single isomer, unassigned) [Compound 193, 4-(2-((R)-3-((R or S)-3,3-dimethyloxetan-2-yl)-1-(pyridin-3-ylmethyl)pyrrolidin-3-yl)ethyl) benzonitrile] | ≤ 30 | –
CCOCC1(CCc2ccc(F)cc2)CCN(Cc2ccccc2)C1 (stereo in doubt) [Compound 4, (S)-1-benzyl-3-(ethoxymethyl)-3-(4-fluorophenethyl) pyrrolidine] | > 50 | ED50 [2]: ≤ 30 mg/kg; ED50 (sc, 0.5 h, compounds of Table III, s.c., 30 min, 55° C. water, configuration tested as in Table IV, read-out: ED50 (mg/kg) at 30 min on C57BL/6 mice in Warm-water Tail-flick Test (same as Table II)): > 50 mg/kg; ED50 [3]: ≤ 30 mg/kg
Cc1ccc(C(C)(C)N2CC[C@@](CCc3ccc(F)cc3)(C(O)C(F)(F)F)C2)cn1 (single isomer, unassigned) [Compound 78] | ≤ 30 | –
CC(C)(O)[C@@]1(CCc2ccc(C#N)cc2)CCN(C(c2cccnc2)c2cccnc2)C1 [Compound 63] | > 50 | –
Cc1ccnc(C)c1CN1CC[C@@](CCc2ccc(C#N)cc2)(C(O)C(F)(F)F)C1 (single isomer, unassigned) [Compound 227, 4-(2-((R)-1-((2,4-dimethylpyridin-3-yl)methyl)-3-((R or S)-2,2,2-trifluoro-1-hydroxyethyl)pyrrolidin-3-yl)ethyl) benzonitrile] | > 50 | –
Cc1ccc(C(C)(C)N2CCC(CCCc3cccs3)(C3CCCO3)C2)cn1 (single isomer, unassigned) [Compound 19] | – | ED50 [2]: ≤ 30 mg/kg
CC(C)(c1ccccn1)N1CC[C@](COCc2ccccc2)(C2CCCO2)C1 (single isomer, unassigned) [Compound 42] | > 50 | –
N#Cc1ccc(CC[C@@]2(C3OCC3(F)F)CCN(Cc3cccnc3)C2)cc1 (single isomer, unassigned) [Compound 197, 4-(2-((R)-3-((R or S)-3,3-difluorooxetan-2-yl)-1-(pyridin-3-ylmethyl)pyrrolidin-3-yl)ethyl) benzonitrile] | ≤ 30 | –
CC(O)[C@]1(CCc2ccc(F)cc2)CCN(C(C)(C)c2ccc(S(C)(=O)=O)cc2)C1 (single isomer, unassigned) [Compound 38, (R or S)-1-((R)-3-(4-fluorophenethyl)-1-(2-(4-(methylsulfonyl)phenyl)propan-2-yl)pyrrolidin-3-yl)ethan-1-ol] | > 50 | –
CC(C)(c1ccccn1)N1CC[C@](CO)(CCc2ccccc2C#N)C1 [Compound 129, (R)-2-(2-(3-(hydroxymethyl)-1-(2-(pyridin-2-yl)propan-2-yl)pyrrolidin-3-yl)ethyl) benzonitrile] | > 50 | –
CC(C)(c1ccccn1)N1CC[C@@](/C=C/c2ccc(C#N)cc2)(c2nn[nH]n2)C1 [Compound 185, (S,E)-4-(2-(1-(2-(pyridin-2-yl)propan-2-yl)-3-(2H-tetrazol-5-yl)pyrrolidin-3-yl)vinyl) benzonitrile] | > 50 | –
CCOC(C(F)(F)F)(C(F)(F)F)[C@]1(CCc2ccc(F)cc2)CCN(Cc2ccc(C)nc2)C1 [Compound 13, (R)-5-((3-(2-ethoxy-1,1,1,3,3,3-hexafluoropropan-2-yl)-3-(4-fluorophenethyl)pyrrolidin-1-yl)methyl)-2-methylpyridine] | > 50 | ED50 [2]: ≤ 30 mg/kg; ED50 [3]: > 50 mg/kg
